Assays:
[1] = tested on: green peach aphid (Myzus persicae); experiment: Myzus persicae spray test (MYZUPE); assay type: in vivo; settings: application rate 500 g/ha, after 6 days, Chinese cabbage leaf discs
Procedure: 1. Myzus persicae Spray Test (MYZUPE)
• Solvents: 78 parts by weight of acetone • 1.5 part by weight of dimethylformamide • Emulsifier: 0.5 part by weight of alkylaryl polyglycol ether
To produce a suitable preparation of active compound, 1 part by weight of active compound is mixed with the stated amounts of solvents and emulsifier, and the concentrate is diluted with emulsifier-containing water to the desired concentration.
Discs of Chinese cabbage leaves (Brassica pekinensis) infested by all stages of the green peach aphid (Myzus persicae) are sprayed with an active compound preparation of the desired concentration.
After 6 days, the efficacy in % is determined. 100% here means that all of the aphids have been killed; 0% means that no aphids have been killed.

[2] = tested on: greenhouse red spider mite (Tetranychus urticae); experiment: Tetranychus urticae spray test, OP-resistant (TETRUR); assay type: in vivo; settings: application rate 500 g/ha, after 6 days, bean leaf discs
In short: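 Bean leaf discs infested with all stages of an OP-resistant strain are sprayed with compound in acetone/DMF with alkylaryl polyglycol ether emulsifier, diluted in water; % mortality after 6 days (100% = all mites killed).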

[3] = log P by HPLC on reversed-phase columns (C 18), EEC directive 79/831 Annex V.A8; assay type: physicochemical
In short: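 Measured by reversed-phase C18 HPLC (LC-MS) with a linear 10→95% acetonitrile gradient. Acidic: pH 2.7, 0.1% formic acid. Neutral: pH 7.8, 0.001 M ammonium bicarbonate.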

[4] = tested on: southern root-knot nematode (Meloidogyne incognita); experiment: Meloidogyne incognita test (MELGIN); assay type: in vivo; settings: application rate 20 ppm, after 14 days, lettuce
In short: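 Compound in acetone diluted with water, added to sand with M. incognita egg/larvae suspension and lettuce seeds. Root galls assessed after 14 days; effect in % where 100% means no galls and 0% equals untreated control.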

[5] = tested on: cattle ticks (Boophilus microplus); experiment: Boophilus microplus injection test (BOOPMI Inj); assay type: in vivo; settings: 20 μg/animal, injection into the abdomen, assessed after 7 days
Procedure: 6. Boophilus microplus Injection Test (BOOPMI Inj)
• Solvent: dimethyl sulphoxide
To produce a suitable preparation of active compound, 10 mg of active compound are mixed with 0.5 ml of solvent, and the concentrate is diluted with solvent to the desired concentration.
1 μl of the active compound solution is injected into the abdomen of 5 fed adult female cattle ticks (Boophilus microplus). The animals are transferred into dishes and kept in a climate-controlled room.
The activity is assessed after 7 days by laying of fertile eggs. Eggs whose fertility is not visible from the outside are stored in a climate-controlled cabinet until the larvae hatch after about 42 days. An efficacy of 100% means that none of the ticks has laid any fertile eggs; 0% means that all eggs are fertile.

| SMILES | efficacy in % (aphids killed) [1] | efficacy in % (spider mites killed) [2] | logP[a] ([3]; method [a]) | logP[b] ([3]; method [b]) | nematicidal effect in % (formation of galls) [4] | efficacy in % (laying of fertile eggs) [5] |
| --- | --- | --- | --- | --- | --- | --- |
| CCn1ncc2c(=O)n(-c3cc(SCC(F)(F)F)c(C)cc3F)c(C)nc21 [Compound 125] | 100% | 100% | – | – | – | – |
| CCn1cnc2c(=O)n(-c3cc(SCC(F)(F)F)c(C)cc3F)cnc21 [Compound 53] | 90% | 90% | 2.46 | 2.41 | 100% | – |
| Cc1cc(F)c(-n2cnc3nn(C)c(C)c3c2=O)cc1[S+]([O-])CC(F)(F)F (stereo not drawn) [Compound 172] | 90% | 90% | – | – | – | 100% |
| Cc1cc(F)c(-n2c(C)nc3nn(C)cc3c2=O)cc1[S+]([O-])CC(F)(F)F (stereo not drawn) [Compound 175] | 100% | 100% | – | – | – | – |

Reference: US9512128B2 (BAYER CROPSCIENCE AG, priority 2012, dated 2016)
